Reference: US7902200B2, “Chemical compounds” (AstraZeneca AB, priority 2006, dated 2011)

Assays:
[1] = biological target: T1, recombinant human pancreatic GLK (Homo sapiens, UniProt P35557); test: GKH4 variant of GLK enzymatic activity assay (automated end-point assay); assay type: biochemical; details: activation of GLK; 10 nmol/l GLK; end-point at 10 minutes; no GLKRP
T1 construct: 6-His (N); made in house; host or cells: E. coli BL21
T1 sequence (P35557 1-465): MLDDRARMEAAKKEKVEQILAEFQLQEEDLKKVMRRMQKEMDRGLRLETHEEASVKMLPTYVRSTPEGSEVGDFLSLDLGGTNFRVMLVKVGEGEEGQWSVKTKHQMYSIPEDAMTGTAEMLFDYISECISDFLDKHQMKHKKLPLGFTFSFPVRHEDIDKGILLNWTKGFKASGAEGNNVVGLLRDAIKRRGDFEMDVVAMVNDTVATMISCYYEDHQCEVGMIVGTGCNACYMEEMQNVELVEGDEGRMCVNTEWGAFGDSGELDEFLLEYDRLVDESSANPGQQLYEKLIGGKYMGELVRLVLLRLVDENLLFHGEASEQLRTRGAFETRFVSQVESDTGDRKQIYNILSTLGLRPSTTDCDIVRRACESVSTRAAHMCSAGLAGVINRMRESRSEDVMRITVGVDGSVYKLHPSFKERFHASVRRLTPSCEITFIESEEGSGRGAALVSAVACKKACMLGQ
Experimental: (§1) Enzymatic activity of recombinant human pancreatic GLK may be measured by incubating GLK, ATP and glucose. The rate of product formation may be determined by coupling the assay to a G-6-P dehydrogenase, NADP/NADPH system and measuring the linear increase with time of optical density at 340 nm (Brocklehurst et al (Diabetes 2004, 53, 535-541). Activation of GLK by compounds can be assessed using this assay in the presence or absence of GLKRP as described in Brocklehurst et al (Diabetes 2004, 53, 535-541).
(§2) One or both of two variants of this assay, GKH1 and GKH4, were used to test the compounds of the invention. The GKH1 assay is a manual, bench-top rate assay using 60 nmol/l of recombinant human pancreatic GLK. The GLK activity rate is measured over a 5 minute window using a Multiskan Ascent spectrophotometer. The GKH4 assay is an automated end-point assay using 10 nmol/l of recombinant human pancreatic GLK. The GLK activity is measured at 10 minutes after the initiation of the assay on a Perkin Elmer Envision spectrophotometer.

[2] = biological target: T1, recombinant human pancreatic GLK; test: GKH1 variant of GLK enzymatic activity assay (manual bench-top rate assay); assay type: biochemical; details: activation of GLK; 60 nmol/l GLK; rate over 5 minute window; no GLKRP
Experimental: as §1, §2

| EC50 [1] | EC50 [2] | Structure (SMILES) |
| --- | --- | --- |
| 350 nM | 100 nM | Cc1cnc(NC(=O)c2cc(Oc3ccc4c(c3)OCN(C)C4=O)cc(O[C@H]3CCN(C)C3=O)c2)cn1 [Example 15, 3-[(4-Methyl-5-oxo-2-oxa-4-azabicyclo[4.4.0]deca-6,8,10-trien-9-yl)oxy]-5-(1-methyl-2-oxo-pyrrolidin-3-yl)oxy-N-(5-methylpyrazin-2-yl)benzamide] |
| 7230 nM | 3340 nM | Cc1cnc(NC(=O)c2cc(Oc3ccc(C(=O)N4CCC4)nc3)cc(O[C@@H]3CCN(C4CC4)C3=O)c2)cn1 [Example 18, 3-[6-(Azetidine-1-carbonyl)pyridin-3-yl]oxy-5-[(3R)-1-cyclopropyl-2-oxo-pyrrolidin-3-yl]oxy-N-(5-methylpyrazin-2-yl)benzamide] |
| 900 nM | 420 nM | Cc1cnc(NC(=O)c2cc(Oc3ccc(C(=O)N4CCC4)nc3)cc(O[C@@H]3CCN(C4CCC4)C3=O)c2)cn1 [Example 20, 3-[6-(Azetidine-1-carbonyl)pyridin-3-yl]oxy-5-[(3R)-1-cyclobutyl-2-oxo-pyrrolidin-3-yl]oxy-N-(5-methylpyrazin-2-yl)benzamide] |
| 1110 nM | 210 nM | Cc1cnc(NC(=O)c2cc(Oc3ccc(C(=O)N4CCC4)nc3)cc(O[C@H]3CCN(C4CCC4)C3=O)c2)cn1 [Example 21, 3-[6-(Azetidine-1-carbonyl)pyridin-3-yl]oxy-5-[(3S)-1-cyclobutyl-2-oxo-pyrrolidin-3-yl]oxy-N-(5-methylpyrazin-2-yl)benzamide] |
| 6610 nM | 2370 nM | CCN1CC[C@@H](Oc2cc(Oc3ccc(C(=O)N4CCC4)nc3)cc(C(=O)Nc3cnc(C)cn3)c2)C1=O [Example 22, -[6-(Azetidine-1-carbonyl)pyridin-3-yl]oxy-5-[(3R)-1-ethyl-2-oxo-pyrrolidin-3-yl]oxy-N-(5-methylpyrazin-2-yl)benzamide] |
| 220 nM | 50 nM | CCN1CC[C@H](Oc2cc(Oc3ccc(C(=O)N4CCC4)nc3)cc(C(=O)Nc3cnc(C)cn3)c2)C1=O [Example 23, 3-[6-(Azetidine-1-carbonyl)pyridin-3-yl]oxy-5-[(3S)-1-ethyl-2-oxo-pyrrolidin-3-yl]oxy-N-(5-methylpyrazin-2-yl)benzamide] |
| 570 nM | 150 nM | Cc1cnc(NC(=O)c2cc(Oc3cnc(C(=O)N(C)C)cn3)cc(O[C@H]3CCN(C)C3=O)c2)cn1 [Example 24, N,N-Dimethyl-5-[3-[(3S)-1-methyl-2-oxo-pyrrolidin-3-yl]oxy-5-[(5-methylpyrazin-2-yl)carbamoyl]phenoxy]pyrazine-2-carboxamide] |
| 40 nM | 30 nM | CN1CC[C@H](Oc2cc(Oc3ccc4c(c3)OCCCS4(=O)=O)cc(C(=O)Nc3cc[nH]n3)c2)C1=O [Example 25, 3-[(2,2-Dioxo-6-oxa-2-λ^6-thiabicyclo[5.4.0]undeca-7,9,11-trien-9-yl)oxy]-5-[(3S)-1-methyl-2-oxo-pyrrolidin-3-yl]oxy-N-(1H-pyrazol-3-yl)benzamide] |
